Assay results from ChEMBL document CHEMBL5512615, “Targeting autophagy drug discovery: Targets, indications and development trends” (Eur J Med Chem, 2024).
Each block holds one molecule with its values, some of them ahead of it. Where a SMILES comes first, the peptide text is derived from it. [ ]: non-standard residue; d: D form. pY = N[C@@H](Cc1ccc(OP(=O)(O)O)cc1)C(=O)O

Legend:
Translocator protein [1] = target: T1, Translocator protein (Mus musculus, UniProt P50637)
cells [2] = conditions: Homo sapiens, NCI-H1975
Description: Inhibition of MAPK/ERK signaling pathway in human NCI-H1975 cells

[3] = target: T2, 5'-AMP-activated protein kinase catalytic subunit alpha-2 (Homo sapiens, UniProt P54646)
Description: Inhibition of AMPK (unknown origin)

PC-12 = experiment: cells; conditions: Rattus norvegicus
Description: Neuroprotective activity against rat PC12 cells assessed as decrease in H2O2-induced intracellular Ca2+ level preincubated for 12 hrs followed by H2O2-stimulation and measured after 12 hrs by Fluo-3 AM dye based flow cytometry

[4] = target: T2, 5'-AMP-activated protein kinase catalytic subunit alpha-2; remark: listed apart in the source
Description: Agonist activity at AMPK (unknown origin)

[5] = target: T3, Phosphatidylinositol 4,5-bisphosphate 3-kinase catalytic subunit alpha isoform (Homo sapiens, UniProt P42336)
Description: Inhibition of PI3Kalpha (unknown origin)

[6] = target: T2, 5'-AMP-activated protein kinase catalytic subunit alpha-2; remark: listed apart in the source
Description: Inhibition of AMPK signalling pathway in human HepG2 cells

[7] = target: T4, Tumour suppressor protein p53/Mdm4 (Homo sapiens, UniProt O15151+P04637)
Description: Binding affinity to MDM4/p53 interaction (unknown origin) assessed as inhibition constant

Tubulin = conditions: k562
Description: Inhibition of microtubule polymerization in human K562 cells measured for 60 mins by fluorescence based analysis

[8] = target: Phosphatidylinositol 3-kinase catalytic subunit type 3 (Homo sapiens, UniProt Q8NEB9)
Description: Inhibition of human PIK3C3 using PI as substrate by ADP-Glo assay

cells [9] = conditions: Homo sapiens, PC-3
Description: Inhibition of V-ATPase activity in lysosomes of human PC-3 cells

Cysteine protease ATG4B = target: T5, Cysteine protease ATG4B (Homo sapiens, UniProt Q9Y4P1)
T5 sequence (Q9Y4P1 whole entry): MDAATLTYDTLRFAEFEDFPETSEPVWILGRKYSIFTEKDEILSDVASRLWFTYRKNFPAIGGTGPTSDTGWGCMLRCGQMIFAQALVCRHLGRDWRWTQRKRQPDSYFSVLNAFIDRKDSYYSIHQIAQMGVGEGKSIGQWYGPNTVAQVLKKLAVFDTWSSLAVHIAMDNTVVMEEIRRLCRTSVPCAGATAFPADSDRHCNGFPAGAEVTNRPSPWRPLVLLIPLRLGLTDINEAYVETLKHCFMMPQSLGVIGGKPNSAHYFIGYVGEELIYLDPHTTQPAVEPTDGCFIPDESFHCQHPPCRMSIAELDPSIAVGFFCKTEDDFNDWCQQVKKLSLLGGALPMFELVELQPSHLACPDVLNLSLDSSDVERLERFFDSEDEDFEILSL
Description: Inhibition of ATG4B (unknown origin) using pim-FG-PABA-AMC as substrate by fluorescence based assay

[10] = target: T6, Testis-expressed protein 264 (Homo sapiens, UniProt Q9Y6I9)
T6 sequence (Q9Y6I9 whole entry): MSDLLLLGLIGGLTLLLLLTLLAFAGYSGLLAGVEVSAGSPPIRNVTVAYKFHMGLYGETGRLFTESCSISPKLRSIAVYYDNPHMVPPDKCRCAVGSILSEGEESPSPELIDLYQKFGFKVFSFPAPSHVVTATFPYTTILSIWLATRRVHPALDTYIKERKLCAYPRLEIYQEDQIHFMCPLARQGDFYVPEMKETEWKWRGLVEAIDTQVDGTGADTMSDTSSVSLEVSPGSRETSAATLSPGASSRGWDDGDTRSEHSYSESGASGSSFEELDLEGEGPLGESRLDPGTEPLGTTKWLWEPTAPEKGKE
Description: Inhibition of TEX264 (unknown origin)

Translocator protein [11] = target: Translocator protein (Rattus norvegicus, UniProt P16257)
[12] = target: T2, 5'-AMP-activated protein kinase catalytic subunit alpha-2; remark: listed apart in the source
HCT-116 = experiment: cells; conditions: Homo sapiens, HCT-116, 24 h
Description: Induction of autophagy in human HCT-116 cells assessed as increase in p62 expression upto 5 uM incubated for 24 hrs by Western blot analysis

[13] = target: Tumour suppressor p53/oncoprotein Mdm2 (Homo sapiens, UniProt P04637+Q00987)
Description: Inhibition of MDM2/p53 interaction (unknown origin)

[14] = target: T3, Phosphatidylinositol 4,5-bisphosphate 3-kinase catalytic subunit alpha isoform; remark: listed apart in the source
Description: Inhibition of PI3Kalpha (unknown origin) by kinase profiling assay

[15] = target: T4, Tumour suppressor protein p53/Mdm4; remark: listed apart in the source
Description: Inhibition of MDM4/p53 (unknown origin)

[16] = target: Serine/threonine-protein kinase mTOR (Homo sapiens, UniProt P42345)
Description: Inhibition of human mTORC1 incubated for 90 mins by Lanthascreen time-resolved FRET assay

[17] = target: T2, 5'-AMP-activated protein kinase catalytic subunit alpha-2; remark: listed apart in the source
Description: Binding affinity to AMPK (unknown origin) assessed as inhibition constant

cells [18] = conditions: Homo sapiens, HK-2, 6 h
Description: Downregulation of BNIP3 expression in human HK-2 cells incubated for 6 hrs by Western blot analysis

Translocator protein [19] = target: T1, Translocator protein; experiment: Binding affinity to mouse TSPO expressed in Escherichia coli assessed as inhibition constant

SMILES: C[C@H]1CCCC(=O)CCC/C=C/c2cc(O)cc(O)c2C(=O)O1 [ZEARALENONE]
IC50 (Translocator protein [1]): 500 nM

SMILES: CC[C@@H]1[C@@H](C)O[C@@](O)([C@@H](C)[C@H](O)[C@H](C)[C@H]2OC(=O)/C=C/C=C/[C@H](C)[C@@H]([C@@H](C)[C@@H](O)[C@H](C)[C@@]3(O)C[C@@H](O[C@H]4C[C@H](O)[C@H](O)[C@H](C)O4)[C@H](CC)[C@@H](C)O3)OC(=O)/C=C/C=C/[C@@H]2C)C[C@H]1O[C@H]1C[C@H](O)[C@H](O)[C@H](C)O1
IC50 (cells [2]): 4.2 nM

IC50 [3]: 506000 nM
SMILES: OC[C@H]1O[C@@H](Oc2ccc3c(c2)OC[C@H]2c4cc5c(cc4O[C@@H]32)OCO5)[C@H](O)[C@@H](O)[C@@H]1O [TRIFOLIRHIZIN]

SMILES: O=C(O[C@@H]1Cc2c(O)cc(O)cc2O[C@@H]1c1cc(O)c(O)c(O)c1)c1cc(O)c(O)c(O)c1 [EPIGALOCATECHIN GALLATE]
IC50 (PC-12): 30 nM

EC50 [4]: 300 nM
SMILES: OCc1c(C2CC2)nc2ccccc2c1-c1ccc(F)cc1

EC50 [4]: 800 nM
SMILES: N#CC1C(=O)Nc2scc(-c3ccc(-c4ccccc4O)cc3)c2C1=O (stereo unspecified)

SMILES: O=C(Nc1ccc(Oc2ccc(Cl)cc2)c(Cl)c1)c1cc(I)cc(I)c1O [RAFOXANIDE]
IC50 [5]: 13000 nM

IC50 [6]: 12000 nM
SMILES: COc1ccc2cc3[n+](cc2c1OC)CCc1cc2c(cc1-3)OCO2 [BERBERINE]

IC50 (cells [2]): 5 nM
SMILES: CC(=O)O[C@H]1C(=O)[C@]2(C)[C@H](O)C[C@H]3OC[C@@]3(OC(C)=O)[C@H]2[C@H](OC(=O)c2ccccc2)[C@]2(O)C[C@H](OC(=O)[C@H](O)[C@@H](NC(=O)c3ccccc3)c3ccccc3)C(C)=C1C2(C)C

Ki [7]: 0.8 nM
SMILES: CN(C)CC[C@H](CSc1ccccc1)Nc1ccc(S(=O)(=O)NC(=O)c2ccc(N3CCN(Cc4ccccc4-c4ccc(Cl)cc4)CC3)cc2)cc1[N+](=O)[O-] [ABT 737]

IC50 (cells [2]): 300 nM
SMILES: CC(C)Nc1cc(-c2c[nH]c(C(=O)N[C@H](CO)c3cccc(Cl)c3)c2)c(Cl)cn1 [ULIXERTINIB]

IC50 (Tubulin): 700 nM
SMILES: COc1ccc(S(=O)(=O)Nc2cccnc2Nc2ccc(O)cc2)cc1 [ABT-751]

IC50 (Tubulin): 340 nM
SMILES: O=C1C[C@@H](c2ccc(O)cc2)Oc2cc(O)ccc21 [LIQUIRTIGENIN]

IC50 [8]: 14 nM
SMILES: C[C@@H]1COCCN1c1cc(N2CCCC[C@@H]2C(F)(F)F)[nH]c(=O)c1

IC50 (cells [9]): 0.21 nM
SMILES: CCN(CCO)CCCC(C)Nc1ccnc2cc(Cl)ccc12 (stereo unspecified) [HYDROXYCHLOROQUINE]

IC50 (Tubulin): 360 nM
SMILES: CCOC(=O)c1[nH]c(Br)c(-c2ccc(OC)c(OC)c2)c1Br

SMILES: CO/C1=C\C(C)=C\[C@@H](C)[C@@H](O)[C@@H](C)C/C(C)=C/C=C/[C@H](OC)[C@@H]([C@@H](C)[C@@H](O)[C@H](C)[C@@]2(O)C[C@@H](O)[C@H](C)[C@@H](C(C)C)O2)OC1=O [BAFILOMYCIN A1]
IC50 (cells [9]): 0.06 nM

SMILES: O=c1c2ccccc2[se]n1-c1ccccc1 [EBSELEN]
IC50 (Cysteine protease ATG4B): 180 nM

IC50 [10]: 15 nM
SMILES: CN(Cc1ccccc1)S(=O)(=O)c1cc(C(=O)O)c(NCc2ccco2)cc1Cl

IC50 (Translocator protein [11]): 0.73 nM
SMILES: CC(C(O)c1ccc(O)cc1)N1CCC(Cc2ccccc2)CC1 (stereo unspecified) [IFENPRODIL]

SMILES: COC(=O)C1=C(C)NC(C)=C(C(=O)OC)C1c1ccccc1[N+](=O)[O-] [NIFEDIPINE]
IC50 (Translocator protein [11]): 0.5 nM

IC50 [12]: 50000 nM
SMILES: Oc1ccc(/C=C/c2cc(O)cc(O)c2)cc1 [RESVERATROL]

EC50 [4]: 1.3 nM
SMILES: C[C@]12CCC(=O)C=C1CC[C@@H]1[C@@H]2[C@@H](O)C[C@]2(C=O)[C@@H](C(=O)CO)CC[C@@H]12 [ALDOSTERONE]

IC50 (HCT-116): 300 nM
SMILES: BrNc1nc(N/N=C\c2c[nH]c3ccccc23)nc(N2CCOCC2)n1

IC50 (cells [9]): 112000 nM
SMILES: NCCCCNCCCN [SPERMIDINE]

IC50 [12]: 108 nM
SMILES: CNC(=O)c1ccccc1Oc1nc(Nc2cc(OC)c(OC)c(OC)c2)ncc1Br

SMILES: CC(C)=CCC/C(C)=C/Cc1c(O)cc2c(c1O)C(=O)C[C@@H](c1ccc(O)cc1)O2 [BONANNIONE A]
IC50 [13]: 3700 nM

IC50 (Translocator protein [1]): 1 nM
SMILES: CC(C)(C)c1ccc(C(O)CCCN2CCC(C(O)(c3ccccc3)c3ccccc3)CC2)cc1 (stereo unspecified) [TERFENADINE]

SMILES: COc1ccc2cc1Oc1ccc(cc1)C[C@@H]1c3cc(c(OC)cc3CCN1C)Oc1c(OC)c(OC)cc3c1[C@@H](C2)N(C)CC3 [PHAEANTHINE]
IC50 [13]: 179 nM

IC50 [14]: 30000 nM
SMILES: CC[C@H](C)[C@H](NC(=O)[C@H](CCCCN)NC(=O)[C@@H](NC(=O)[C@H](CCC(N)=O)NC(=O)[C@@H](N)CCCNC(=N)N)[C@@H](C)CC)C(=O)N[C@@H](Cc1c[nH]c2ccccc12)C(=O)N[C@@H](Cc1ccccc1)C(=O)N[C@@H](CCC(N)=O)C(=O)N[C@@H](CC(N)=O)C(=O)N[C@@H](CCCNC(=N)N)C(=O)N[C@@H](CCCNC(=N)N)C(=O)N[C@@H](CCSC)C(=O)N[C@@H](CCCCN)C(=O)N[C@@H](Cc1c[nH]c2ccccc12)C(=O)N[C@@H](CCCCN)C(=O)N[C@@H](CCCCN)C(=O)N[C@@H](CO)C(=O)N[C@@H](CC(=O)O)C(=O)NCC(=O)NCC(=O)N[C@@H](Cc1ccc(OP(=O)(O)O)cc1)C(=O)N[C@@H](CCSC)C(=O)N[C@@H](CC(=O)O)C(=O)N[C@@H](CCSC)C(=O)N[C@@H](CO)C(=O)O (H-RQIKIWFQNRRMKWKKSDGG[pY]MDMS-OH)

IC50 [8]: 5 nM
SMILES: Cc1[nH]c2ccccc2c1CCNCc1ccc(/C=C/C(=O)NO)cc1 [PANOBINOSTAT]

IC50 [15]: 11 nM
SMILES: C=CCS[S+]([O-])CC=C (stereo unspecified) [ALLICIN]

IC50 (Translocator protein [11]): 300 nM
SMILES: COc1cc2c(cc1OC)-c1c(OC)c(OC)cc3ccnc(c13)C2=O [OXOGLAUCINE]

IC50 [13]: 3200 nM
SMILES: COc1ccc(-c2cc(=O)c3c(OC)c(OC)c(OC)cc3o2)cc1OC [SINENSETIN]

IC50 (cells [2]): 2230 nM
SMILES: C=CC(C1=CC(=O)C(OC)=CC1=O)c1ccccc1 (stereo unspecified) [4-METHOXYDALBERGIONE]

EC50 [4]: 5100 nM
SMILES: Oc1cc(O)c2c(c1)O[C@@]1(c3ccc(O)c(O)c3)Oc3cc(O)c4c(c3[C@@H]2[C@H]1O)O[C@H](c1ccc(O)c(O)c1)[C@@H](O)C4 [PROANTHOCYANIDIN A1]

IC50 [16]: 150 nM
SMILES: CO[C@H]1C[C@@H]2CC[C@@H](C)[C@@](O)(O2)C(=O)C(=O)N2CCCC[C@H]2C(=O)O[C@H]([C@H](C)C[C@@H]2CC[C@@H](OCCO)[C@H](OC)C2)CC(=O)[C@H](C)/C=C(\C)[C@@H](O)[C@@H](OC)C(=O)[C@H](C)C[C@H](C)/C=C/C=C/C=C/1C [EVEROLIMUS]

IC50 (cells [2]): 2100 nM
SMILES: C=C1C(=O)O[C@@H]2/C=C(\C)CC/C=C(\C)CC[C@@H]12 [COSTUNOLIDE]

IC50 [10]: 10 nM
SMILES: O=C(Oc1cccc(/C=N/Nc2nc(Nc3ccccc3)nc(N3CCOCC3)n2)c1)c1ccco1

SMILES: c1cc(-c2cnn3cc(-c4ccc(OCCN5CCCCC5)cc4)cnc23)ccn1 [DORSOMORPHIN]
Ki [17]: 109 nM

IC50 (cells [2]): 5 nM
SMILES: Cn1nccc1Nc1nccc(-c2cc3c(s2)C(C)(C)N(CCN2CCOCC2)C3=O)n1 [TEMUTERKIB]

IC50 (cells [18]): 2 nM
SMILES: Cc1ccc(NC(=O)NCc2ccc3c(c2)CN(C2CCC(=O)NC2=O)C3=O)cc1Cl (stereo unspecified)

SMILES: Clc1ccc(C(Cn2ccnc2)OCc2ccsc2Cl)c(Cl)c1 (stereo unspecified) [TIOCONAZOLE]
IC50 (Cysteine protease ATG4B): 1300 nM

Ki (Translocator protein [19]): 0.4 nM
SMILES: CC[C@@H](C)N(C)C(=O)c1cc2ccccc2c(-c2ccccc2Cl)n1 [(R)PK-11195]

IC50 (HCT-116): 2500 nM
SMILES: CC(=O)N[C@@H](CC(C)C)C(=O)N[C@@H](CC(C)C)C(=O)N[C@H](C=O)CCCNC(=N)N

IC50 (cells [18]): 10 nM
SMILES: Cc1nc(C(=O)NCC(=O)O)c(O)c2ccc(Oc3ccccc3)cc12 [ROXADUSTAT]
